In the NIST ThermoML archive (doi:10.1016/j.fluid.2004.09.013):

Settings: for mass density: Fluid (supercritical or subcritical phases), Vibrating tube method; for vapor or sublimation pressure: Liquid

C/C=C\C [(Z)-2-butene]
Settings	mass density [kg/m3]
393.23 K, 9997 kPa	513.82
393.23 K, 15000 kPa	529.93
393.23 K, 20002 kPa	542.79
393.23 K, 24993 kPa	553.61
393.23 K, 29998 kPa	563
393.23 K, 35001 kPa	571.39
393.23 K, 39987 kPa	578.89
398.23 K, 2818 kPa	466.01
398.23 K, 4984 kPa	481.85
398.23 K, 20014 kPa	537.23
398.23 K, 25003 kPa	548.52
398.23 K, 34998 kPa	566.9
398.23 K, 39994 kPa	574.66
398.24 K, 9988 kPa	506.47
398.24 K, 14995 kPa	523.68
398.24 K, 29983 kPa	558.24
403.23 K, 3025 kPa	454.7
403.23 K, 14991 kPa	517.31
403.23 K, 25002 kPa	543.35
403.23 K, 29989 kPa	553.46
403.23 K, 34986 kPa	562.37
403.23 K, 39984 kPa	570.38
403.24 K, 4991 kPa	471.74
403.24 K, 9985 kPa	498.93
403.24 K, 20009 kPa	531.6
408.23 K, 14993 kPa	510.87
408.23 K, 29988 kPa	548.67
408.23 K, 39992 kPa	566.14
408.24 K, 3245 kPa	443.06
408.24 K, 5000 kPa	461.02
408.24 K, 10003 kPa	491.26
408.24 K, 20000 kPa	525.89
408.24 K, 25002 kPa	538.19
408.24 K, 35001 kPa	557.91
413.23 K, 34991 kPa	553.36
413.23 K, 39999 kPa	561.87
413.24 K, 3479 kPa	430.52
413.24 K, 4987 kPa	448.83
413.24 K, 9995 kPa	483.23
413.24 K, 14993 kPa	504.29
413.24 K, 20000 kPa	520.13
413.24 K, 25001 kPa	532.97
413.24 K, 29987 kPa	543.83
418.23 K, 9989 kPa	474.95
418.23 K, 29990 kPa	538.98
418.24 K, 3727 kPa	416.94
418.24 K, 4983 kPa	435.78
418.24 K, 14999 kPa	497.65
418.24 K, 19989 kPa	514.28
418.24 K, 24991 kPa	527.69
418.24 K, 35007 kPa	548.86
418.24 K, 40000 kPa	557.55
423.24 K, 3987 kPa	401.93
423.24 K, 4998 kPa	421.22
423.24 K, 9996 kPa	466.36
423.24 K, 14993 kPa	490.76
423.24 K, 19998 kPa	508.37
423.24 K, 24983 kPa	522.32
423.24 K, 30000 kPa	534.08
423.24 K, 34984 kPa	544.2
423.24 K, 39995 kPa	553.2
428.24 K, 4261 kPa	385.43
428.24 K, 4996 kPa	404.14
428.24 K, 10003 kPa	457.53
428.24 K, 14984 kPa	483.8
428.24 K, 20011 kPa	502.46
428.24 K, 24985 kPa	517
428.24 K, 29987 kPa	529.17
428.24 K, 34985 kPa	539.65
428.24 K, 40008 kPa	548.93
433.24 K, 4552 kPa	367.25
433.24 K, 5002 kPa	383.51
433.24 K, 9988 kPa	448.25
433.24 K, 15006 kPa	476.83
433.24 K, 20002 kPa	496.43
433.24 K, 24994 kPa	511.67
433.24 K, 29984 kPa	524.27
433.24 K, 35007 kPa	535.14
433.24 K, 39990 kPa	544.63
438.24 K, 5016 kPa	356.57
438.24 K, 9984 kPa	438.25
438.24 K, 15001 kPa	469.64
438.24 K, 20003 kPa	490.38
438.24 K, 24991 kPa	506.29
438.24 K, 29997 kPa	519.4
438.24 K, 35007 kPa	530.6
438.24 K, 39994 kPa	540.34
443.23 K, 5019 kPa	312.48
443.24 K, 10006 kPa	428.67
443.24 K, 14981 kPa	462.28
443.24 K, 20008 kPa	484.35
443.24 K, 24985 kPa	500.93
443.24 K, 29991 kPa	514.54
443.24 K, 34987 kPa	526.05
443.24 K, 39991 kPa	536.15
448.23 K, 5020 kPa	224.32
448.24 K, 9992 kPa	418.15
448.24 K, 15006 kPa	454.98
448.24 K, 20001 kPa	478.13
448.24 K, 24996 kPa	495.5
448.24 K, 30011 kPa	509.66
448.24 K, 34990 kPa	521.51
448.24 K, 39989 kPa	531.87
453.24 K, 5018 kPa	172.57
453.24 K, 9981 kPa	407.03
453.24 K, 14999 kPa	447.35
453.24 K, 20011 kPa	471.95
453.24 K, 24994 kPa	490.05

Settings	vapor or sublimation pressure [kPa]
396.4 K	2209.3
400.36 K	2343.2
407.79 K	2693.7
414.25 K	3004.6
416.29 K	3089.5
422.73 K	3456.3
425.59 K	3598.4
430.42 K	3884.7
433.88 K	4101.1
